Measurements: patent publication US9884842B2, “Combretastatin analogs” (The Board of Trustees of the University of Arkansas, priority 2013, dated 2018)
Where two headings read alike, the source gives them in different places.

Key:
[1] = tested on: OVCAR-3; experiment: cells; conditions: Homo sapiens; for GI50: OVCAR-3; for CC50: OVCAR-3, read-out: LC50
[2] = tested on: MDA-MB-468; experiment: cells; conditions: Homo sapiens; for GI50: MDA-MB-468; for CC50: MDA-MB-468, read-out: LC50
[3] = tested on: CCRF-CEM; experiment: NCI growth inhibition and cytotoxicity screen, Leukemia panel; conditions: Homo sapiens; for CC50: read-out: LC50
[4] = tested on: MOLT-4; experiment: as above; conditions: Homo sapiens; for GI50: MOLT-4; for CC50: MOLT-4, read-out: LC50
[5] = tested on: SR; experiment: as above; conditions: Homo sapiens
[6] = tested on: MDA-MB-435; experiment: NCI growth inhibition and cytotoxicity screen, Melanoma panel; conditions: Homo sapiens; for GI50: MDA-MB-435; for CC50: MDA-MB-435, read-out: LC50
[7] = tested on: SK-MEL-5; experiment: as above; conditions: Homo sapiens; for GI50: SK-MEL-5; for CC50: SK-MEL-5, read-out: LC50
[8] = tested on: UACC-257; experiment: as above; conditions: Homo sapiens; for GI50: UACC-257; for CC50: UACC-257, read-out: LC50
[9] = tested on: SF-268; experiment: NCI growth inhibition and cytotoxicity screen, CNS Cancer panel; conditions: Homo sapiens; for GI50: SF-268; for CC50: SF-268, read-out: LC50
[10] = tested on: SNB-19; experiment: as above; conditions: Homo sapiens; for GI50: SNB-19; for CC50: SNB-19, read-out: LC50
[11] = tested on: NCI-H23; experiment: NCI growth inhibition and cytotoxicity screen, Lung Cancer panel; conditions: Homo sapiens; for GI50: NCI-H23; for CC50: NCI-H23, read-out: LC50
[12] = tested on: NCI-H322M; experiment: as above; conditions: Homo sapiens; for CC50: read-out: LC50
[13] = tested on: COLO 205; experiment: NCI growth inhibition and cytotoxicity screen, Colon Cancer panel; conditions: Homo sapiens; for GI50: COLO 205; for CC50: COLO 205, read-out: LC50
[14] = tested on: HCC-2998; experiment: as above; conditions: Homo sapiens; for GI50: HCC 2998; for CC50: HCC 2998, read-out: LC50
[15] = tested on: HCT-116; experiment: as above; conditions: Homo sapiens; for GI50: HCT-116; for CC50: HCT-116, read-out: LC50
[16] = tested on: KM12; experiment: as above; conditions: Homo sapiens; for GI50: KM12; for CC50: KM12, read-out: LC50
[17] = tested on: ACHN; experiment: NCI growth inhibition and cytotoxicity screen, Renal Cancer panel; conditions: Homo sapiens; for CC50: read-out: LC50
[18] = tested on: RXF 393; experiment: as above; conditions: Homo sapiens; for GI50: RXF 393; for CC50: RXF 393, read-out: LC50
[19] = tested on: MCF7; experiment: NCI growth inhibition and cytotoxicity screen, Breast Cancer panel; conditions: Homo sapiens; for GI50: MCF7; for CC50: MCF7, read-out: LC50
[20] = tested on: HS 578T; experiment: as above; conditions: Homo sapiens; for CC50: read-out: LC50
[21] = tested on: BT-549; experiment: as above; conditions: Homo sapiens; for GI50: BT-549; for CC50: BT-549, read-out: LC50
[22] = tested on: T-47D; experiment: as above; conditions: Homo sapiens, T47D; for CC50: read-out: LC50
[23] = tested on: IGROV1; experiment: NCI growth inhibition and cytotoxicity screen, Ovarian Cancer panel; conditions: Homo sapiens; for GI50: IGROV-1; for CC50: IGROV-1, read-out: LC50
[24] = tested on: NCI/ADR-RES; experiment: as above; conditions: Homo sapiens; for CC50: read-out: LC50
[25] = tested on: SK-OV-3; experiment: as above; conditions: Homo sapiens; for GI50: SK-OV-3; for CC50: SK-OV-3, read-out: LC50
[26] = tested on: PC-3; experiment: NCI growth inhibition and cytotoxicity screen, Prostate Cancer panel; conditions: Homo sapiens; for GI50: PC-3; for CC50: PC-3, read-out: LC50
[27] = tested on: DU-145; experiment: as above; conditions: Homo sapiens; for GI50: DU-145; for CC50: DU-145, read-out: LC50
[28] = tested on: NCI-H522; experiment: NCI growth inhibition and cytotoxicity screen, Lung Cancer panel; assay type: cell-based; conditions: Homo sapiens, Table 2, cell line NCI-H522 (Lung Cancer)
[29] = tested on: full panel of 60 different cancer cell lines; experiment: NCI five dose screen, full panel summary; assay type: cell-based, human; conditions: for GI50: Homo sapiens

COc1cc(/C(C#N)=C\c2cc3ccccc3s2)cc(OC)c1OC [Formula (I)(a)]
GI50 [1]: < 10 nM | CC50 [1]: > 100000 nM | GI50 [2]: < 10 nM | CC50 [2]: > 100000 nM | GI50 [3]: < 10 nM | CC50 [3]: > 100000 nM | GI50 [4]: < 10 nM | CC50 [4]: > 100000 nM | GI50 [5]: < 10 nM | CC50 ([5]; read-out: LC50): > 100000 nM | GI50 [6]: < 10 nM | CC50 [6]: > 100000 nM | GI50 [7]: < 10 nM | CC50 [7]: > 100000 nM | GI50 [8]: < 10 nM | CC50 [8]: > 100000 nM | GI50 [9]: < 10 nM | CC50 [9]: > 100000 nM | GI50 [10]: 39.1 nM | CC50 [10]: > 100000 nM | GI50 [11]: < 10 nM | CC50 [11]: > 100000 nM | GI50 [12]: 18.3 nM | CC50 [12]: > 100000 nM | GI50 [13]: < 10 nM | CC50 [13]: 250 nM | GI50 [14]: 19.2 nM | CC50 [14]: > 100000 nM | GI50 [15]: < 10 nM | CC50 [15]: > 100000 nM | GI50 [16]: < 10 nM | CC50 [16]: > 100000 nM | GI50 [17]: < 10 nM | CC50 [17]: > 100000 nM | GI50 [18]: < 10 nM | CC50 [18]: > 100000 nM | GI50 [19]: < 10 nM | CC50 [19]: > 100000 nM | GI50 [20]: < 10 nM | CC50 [20]: > 100000 nM | GI50 [21]: < 10 nM | CC50 [21]: > 100000 nM | GI50 [22]: < 10 nM | CC50 [22]: > 100000 nM | GI50 [23]: < 10 nM | CC50 [23]: > 100000 nM | GI50 [24]: < 10 nM | CC50 [24]: > 100000 nM | GI50 [25]: < 10 nM | CC50 [25]: > 100000 nM | GI50 [26]: < 10 nM | CC50 [26]: > 100000 nM | GI50 [27]: < 10 nM | CC50 [27]: > 100000 nM

COc1cc(/C(C#N)=C/c2ccc3ccccc3n2)cc(OC)c1OC [PNR-4-90, (Z)-3-(quinolin-2-yl)-2-(3,4,5-trimethoxyphenyl)acrylonitrile]
GI50 [28]: 37.2 nM | CC50 ([28]; read-out: LC50 (the source's name)): > 100000 nM | GI50 ([29]; range over the potently inhibited cell lines, read-out: GI50 ranging (potently inhibited cancer cell lines)): 33 to 943 nM | GI50 ([29]; read-out: average GI50 value on all the cancer cell lines): 400 nM | potent growth inhibition on % of the cancer cell lines ([29]; share of the cancer cell lines potently inhibited): 91% | GI50 [1]: 163 nM | CC50 [1]: 54900 nM | GI50 [2]: 243 nM | CC50 [2]: > 100000 nM | GI50 [3]: 248 nM | CC50 [3]: > 100000 nM | GI50 [4]: 488 nM | CC50 [4]: > 100000 nM | GI50 [6]: 33 nM | CC50 [6]: 60000 nM | GI50 [7]: 243 nM | CC50 [7]: > 100000 nM | GI50 [8]: 761 nM | CC50 [8]: > 100000 nM | GI50 [9]: 835 nM | CC50 [9]: > 100000 nM | GI50 [10]: 578 nM | CC50 [10]: > 100000 nM | GI50 [11]: 751 nM | CC50 [11]: > 100000 nM | GI50 [12]: 718 nM | CC50 [12]: > 100000 nM | GI50 [13]: 198 nM | CC50 [13]: 32700 nM | GI50 [14]: 610 nM | CC50 [14]: > 100000 nM | GI50 [15]: 234 nM | CC50 [15]: > 100000 nM | GI50 [16]: 350 nM | CC50 [16]: > 100000 nM | GI50 [17]: 1040 nM | CC50 [17]: > 100000 nM | GI50 [18]: 271 nM | CC50 [18]: > 100000 nM | GI50 [19]: 275 nM | CC50 [19]: > 100000 nM | GI50 [20]: 689 nM | CC50 [20]: > 100000 nM | GI50 [21]: 315 nM | CC50 [21]: > 100000 nM | GI50 [22]: 4760 nM | CC50 [22]: > 100000 nM | GI50 [23]: 846 nM | CC50 [23]: > 100000 nM | GI50 [24]: 112 nM | CC50 [24]: > 100000 nM | GI50 [25]: 524 nM | CC50 [25]: > 100000 nM | GI50 [26]: 348 nM | CC50 [26]: > 100000 nM | GI50 [27]: 446 nM | CC50 [27]: > 100000 nM
